Assay: xn = mol fraction of the nth substance listed
Settings: Liquid

CCOS(=O)(=O)[O-].CCn1cc[n+](C)c1 [1-ethyl-3-methylimidazolium ethyl sulfate] + CO
mass density [kg/m3]
Settings | 100 kPa | 2500 kPa | 5000 kPa | 10000 kPa | 15000 kPa | 20000 kPa | 25000 kPa | 30000 kPa | 35000 kPa
293.15 K, x1 = 0.04781 | – | – | – | – | – | – | – | 907.55 | 910.71
293.15 K, x1 = 0.1026 | – | – | – | – | – | – | – | 979.27 | 982.13
293.15 K, x1 = 0.1977 | – | – | – | – | – | – | – | 1060.75 | 1063.26
293.15 K, x1 = 0.2432 | – | – | – | – | – | – | – | 1088.79 | 1091.21
293.15 K, x1 = 0.3026 | – | – | – | – | – | – | – | 1119.01 | 1121.32
293.15 K, x1 = 0.3887 | – | – | – | – | – | – | – | 1151.75 | 1153.96
293.15 K, x1 = 0.485 | – | – | – | – | – | – | – | 1179.09 | 1181.21
293.15 K, x1 = 0.589 | – | – | – | – | – | – | – | 1201.26 | 1203.3
293.15 K, x1 = 0.7289 | – | – | – | – | – | – | 1221.94 | 1223.92 | 1225.88
293.15 K, x1 = 0.8521 | – | – | – | – | – | – | 1236.51 | 1238.43 | 1240.37
293.15 K, x1 = 0.9397 | – | – | – | – | – | – | 1245.42 | 1247.34 | 1249.28
298.15 K, x1 = 0.04781 | 881.9 | 883.82 | 885.81 | 889.63 | 893.33 | 896.87 | 900.3 | 903.63 | 906.81
298.15 K, x1 = 0.1026 | 956.23 | 957.85 | 959.6 | 962.97 | 966.22 | 969.37 | 972.43 | 975.41 | 978.3
298.15 K, x1 = 0.1977 | 1040.54 | 1041.91 | 1043.39 | 1046.26 | 1049.05 | 1051.78 | 1054.44 | 1057.05 | 1059.58
298.15 K, x1 = 0.2432 | 1069.25 | 1070.58 | 1071.99 | 1074.73 | 1077.43 | 1080.03 | 1082.59 | 1085.11 | 1087.54
298.15 K, x1 = 0.3026 | 1100.31 | 1101.59 | 1102.92 | 1105.51 | 1108.07 | 1110.55 | 1112.96 | 1115.37 | 1117.69
298.15 K, x1 = 0.3887 | 1134.01 | 1135.21 | 1136.46 | 1138.92 | 1141.32 | 1143.68 | 1145.98 | 1148.26 | 1150.46
298.15 K, x1 = 0.485 | 1162.03 | 1163.15 | 1164.36 | 1166.69 | 1168.99 | 1171.24 | 1173.44 | 1175.62 | 1177.74
298.15 K, x1 = 0.589 | 1184.83 | 1185.86 | 1187.01 | 1189.25 | 1191.45 | 1193.61 | 1195.76 | 1197.87 | 1199.91
298.15 K, x1 = 0.7289 | 1207.95 | 1208.92 | 1210.02 | 1212.17 | 1214.29 | 1216.37 | 1218.42 | 1220.46 | 1222.43
298.15 K, x1 = 0.8521 | 1222.76 | 1223.17 | 1224.62 | 1226.79 | 1228.88 | 1230.93 | 1232.93 | 1234.93 | 1236.86
298.15 K, x1 = 0.9397 | 1231.87 | 1232.94 | 1234.01 | 1236.07 | 1238.12 | 1240.12 | 1242.11 | 1244.08 | 1245.99
303.15 K, x1 = 0.04781 | 877.37 | 879.39 | 881.43 | 885.44 | 890.01 | – | – | – | –
303.15 K, x1 = 0.1026 | 951.86 | 953.61 | 955.38 | 958.89 | 962.19 | – | – | – | –
303.15 K, x1 = 0.1977 | 1036.37 | 1037.84 | 1039.36 | 1042.38 | 1045.21 | – | – | – | –
303.15 K, x1 = 0.2432 | 1065.2 | 1066.61 | 1068.04 | 1070.92 | 1073.64 | – | – | – | –
303.15 K, x1 = 0.3026 | 1096.34 | 1097.65 | 1099 | 1101.75 | 1104.31 | – | – | – | –
303.15 K, x1 = 0.3887 | 1130.14 | 1131.4 | 1132.67 | 1135.24 | – | – | – | – | –
303.15 K, x1 = 0.485 | 1158.24 | 1159.4 | 1160.61 | 1163.06 | – | – | – | – | –
303.15 K, x1 = 0.589 | 1181.07 | 1182.15 | 1183.33 | 1185.69 | – | – | – | – | –
303.15 K, x1 = 0.7289 | 1204.24 | 1205.29 | 1206.4 | 1208.67 | – | – | – | – | –
303.15 K, x1 = 0.8521 | 1219.11 | 1220.12 | 1221.21 | 1223.41 | – | – | – | – | –
303.15 K, x1 = 0.9397 | 1228.28 | 1229.37 | 1230.44 | 1232.62 | – | – | – | – | –

Reference: the NIST ThermoML archive (doi:10.1016/j.jct.2007.11.011)
